Data reported in PMC4624630, “Enzymatic Synthesis of Rhamnose Containing Chemicals by Reverse Hydrolysis” (PLoS ONE, 2015).

Biological target: T1, RhaL1 (α-L-rhamnosidase from Alternaria sp. L1) (Alternaria sp. L1, UniProt H6UY33)
T1 construct: recombinant, secreted from Pichia pastoris GS115 (vector pPIC9K, SnaBI/NotI), N-glycosylated; about 120 kDa on SDS-PAGE, about 85 kDa after PNGase F
T1 sequence (H6UY33 20-681): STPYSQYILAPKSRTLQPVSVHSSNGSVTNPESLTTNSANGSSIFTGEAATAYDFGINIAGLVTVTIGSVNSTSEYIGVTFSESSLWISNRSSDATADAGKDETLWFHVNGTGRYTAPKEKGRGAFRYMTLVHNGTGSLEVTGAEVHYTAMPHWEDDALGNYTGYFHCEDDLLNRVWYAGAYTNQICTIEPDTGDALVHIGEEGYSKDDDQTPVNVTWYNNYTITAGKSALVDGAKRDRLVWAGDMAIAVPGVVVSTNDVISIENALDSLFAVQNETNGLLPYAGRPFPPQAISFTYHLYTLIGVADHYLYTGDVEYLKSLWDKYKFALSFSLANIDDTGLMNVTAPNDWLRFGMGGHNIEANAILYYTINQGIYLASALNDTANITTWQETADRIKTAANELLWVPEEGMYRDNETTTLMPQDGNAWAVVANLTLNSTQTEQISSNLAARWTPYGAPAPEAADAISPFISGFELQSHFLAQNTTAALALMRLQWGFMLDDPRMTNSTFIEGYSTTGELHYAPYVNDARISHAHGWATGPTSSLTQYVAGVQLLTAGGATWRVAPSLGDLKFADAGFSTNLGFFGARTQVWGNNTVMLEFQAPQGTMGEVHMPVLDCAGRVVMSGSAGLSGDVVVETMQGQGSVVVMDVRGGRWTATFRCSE
Experiment: reverse hydrolysis; HPLC, product by ESI-MS and NMR
Format: biochemical
Settings: glycosyl donor, acceptor D-mannitol (also D-fructose, esculin); pH 6.5, 55 °C, 48 h

Question: For `C[C@@H]1OC(O)[C@H](O)[C@H](O)[C@H]1O` (stereo partly drawn) [L-rhamnose], which “reverse hydrolysis; HPLC, product by ESI-MS and NMR” value is on record?
Answer: synthesized by the recombinant RhaL1 using L-rhamnose as the glycosyl donor and mannitol as the acceptor
